From article PMC2423185 (BMC Biochemistry, 2008)

Molecular target: T1, H. pylori arginase (RocF) (Helicobacter pylori, UniProt O25949)
T1 construct: gene HP_1399
T1 sequence (O25949 entry or part of it): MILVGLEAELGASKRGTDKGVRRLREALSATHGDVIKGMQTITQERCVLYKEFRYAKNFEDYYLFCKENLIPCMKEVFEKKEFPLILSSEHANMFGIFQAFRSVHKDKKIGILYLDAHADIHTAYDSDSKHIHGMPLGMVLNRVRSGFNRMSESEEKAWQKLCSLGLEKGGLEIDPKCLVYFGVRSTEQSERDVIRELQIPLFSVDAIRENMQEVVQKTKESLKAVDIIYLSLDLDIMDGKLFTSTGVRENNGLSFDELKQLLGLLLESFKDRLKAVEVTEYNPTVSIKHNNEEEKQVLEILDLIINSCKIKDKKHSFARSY

SMILES: N=C(N)NCCC[C@H](N)C(=O)O [L-arginine]
- L-ornithine formation by acidified ninhydrin, 515 nm: With E. coli (pBS-rocF), optimal arginase activity was with cobalt
